Converted amounts (≈) assume the structure as drawn. Where two headings read alike, the source gives them in different places.
Assays:
[1] = test system: Pseudomonas aeruginosa strain BAA-47; test: Checkerboard assay azithromycin + 600-Da BPEI, P. aeruginosa BAA-47; type: cell-based
Experimental: (§1) Checkerboard assays were conducted to identify synergy between BPEI and antibiotics against bacteria. Serial dilutions of antimicrobial agents (BPEI and antibiotic solutions) were added to a 96-well microtiter plate with 100 μL CAMHB per well. Untreated control and positive control (5% bleach) were also conducted. Bacterial inoculation (5×10^5 CFU/mL) from an overnight culture was added to the plate (1 μL/well) and incubated at 37° C. for 20 hr. The change in optical density at 600 nm (ΔOD600) was measured using a Tecan Infinite M20 plate reader immediately after inoculation Minimum inhibitory concentration (MIC) of each drug is determined as the lowest concentration that inhibited cell growth (ΔOD600<0.05). Fractional inhibitory concentration index (FICI) and synergistic effects are determined using EUCAST guidelines: synergy (FICI≤0.5), additivity (0.5<FICI<1), and indifference (FICI>1). Each assay was done in triplicate.

PA OU19 [2] = test: MicroScan Walkaway MIC panel, PA OU19; type: cell-based, P. aeruginosa
MRSA OU11 [3] = test: MicroScan Walkaway MIC panel, MRSA OU11; type: cell-based, Staphylococcus aureus; details: for MIC: Staphylococcus aureus
From the text: (§2) The multi-drug resistance characteristics of the clinical isolates was confirmed using the Beckman Coulter MicroScan Walkaway™ 96plus with the PC33 gram positive panel. The MIC values are listed below.

MRSA OU6 [4] = test: MicroScan Walkaway MIC panel, MRSA OU6; type: cell-based, Staphylococcus aureus; details: for MIC: Staphylococcus aureus
From the text: as §2

MRSA OU11 [5] = test: Checkerboard assay erythromycin + 600-Da BPEI, MRSA OU11; type: cell-based, Staphylococcus aureus; details: for MIC Antibiotic: MRSA OU11, antibiotic alone
Experimental: as §1

PA OU19 [6] = test: Checkerboard assay erythromycin + 600-Da BPEI, PA OU19; type: cell-based, P. aeruginosa
Experimental: as §1

MRSA OU6 [7] = test: Checkerboard assay erythromycin + 600-Da BPEI, MRSA OU6; type: cell-based, Staphylococcus aureus; details: for MIC Antibiotic: MRSA OU6, antibiotic alone
Experimental: as §1

K. pneumoniae BAA-2146 = test: Checkerboard assay, CRE K. pneumoniae BAA-2146 (NDM-1); type: cell-based, Klebsiella pneumoniae; details: NDM-1 strain; over the susceptibility breakpoint
Experimental: (§3) Checkerboard assays were used to determine the synergistic effect between PEG350-BPEI or 600 Da BPEI and antibiotics against drug resistant strains growing in cation-adjusted Mueller-Hinton broth (CAMHB). […] Cells were grown at 37° C. The change in OD600 (optical density at 600 nm) was measured and recorded after 24 hr of treatment. Each checkerboard trial was done in triplicate using sterile Greiner CellStar™ flat bottom polystyrene plates, catalog #655180.

E. coli BAA-2452 = test: Checkerboard assay, CRE E. coli BAA-2452 (NDM-1); type: cell-based, Escherichia coli; details: NDM-1 strain; over the susceptibility breakpoint
Experimental: as §3

[8] = test system: K. pneumoniae BAA-1705(blaKPC+/blaNDM−); test: Checkerboard assay, CRE K. pneumoniae BAA-1705 (blaKPC+/blaNDM-); type: cell-based, Klebsiella pneumoniae; details: FIGS. 11A and 11C
Experimental: as §3

[9] = test system: HEKa cells (primary human epithelial keratinocytes); test: Cytokine release (IL-8, IL-6, TNF-alpha) by HEKa cells, Quantikine ELISA; type: cell-based; details: PG or LPS 5 μg/mL, 24 hr; for TNF-α concentration released by HEKa cells: untreated control <10; for IL-6 concentration released by HEKa cells: untreated control <50
Experimental: (§4) Materials included HEKa cells (primary human epithelial keratinocytes; Invitrogen), Epilife Medium and growth supplement (Invitrogen), lipopolysaccharides from Escherichia coli O111:B4 (Sigma), peptidoglycan from Staphylococcus aureus (Sigma), and Human (IL-8/CXCL8, IL-6, TNF-alpha) Quantikine ELISA Kits (R&D). HEKa cells were seeded in T-75 tissue culture flasks with Epilife media supplemented with human keratinocyte growth supplement 100 ug/mL and 100 U/mL of pen/strep and incubated at 37° C. in a CO2 incubator. Fresh media was replaced every 2 days. Until the cell confluence reach 80-90%, they were split into a new passage. To avoid cell senescence, all experiments were performed with cells at passage 3-7. HEKa cells were cultured in a new 24-well plate until 80-90% confluence (total V=1 mL/well). […] The cell media was collected in 1.5 mL Eppendorf microtubes and stored at −20° C. until ELISA assays were performed. Concentrations of IL-8, IL-6, TNF-α cytokines released into the media were quantified followed the instructions of Quantikine Colorimetric ELISA assay kits (R&D Systems). Absorbance was measured at 450 nm and 570 nm. Final corrected absorbance was the subtraction […].
as §4, with “HEKa” for “Materials included HEKa cells (primary human epithelial keratinocytes; Invitrogen), Epilife Medium and growth supplement (Invitrogen), lipopolysaccharides from Escherichia coli O111:B4 (Sigma), peptidoglycan from Staphylococcus aureus (Sigma), and Human (IL-8/CXCL8, IL-6, TNF-alpha) Quantikine ELISA Kits (R&D). HEKa”, “senescent,” for “senescence,”, “volume=1” for “V=1”, “IL-8 cytokine” for “IL-8, IL-6, TNF-α cytokines”

[10] = Pseudomonas aeruginosa, read-out: MIC
[11] = MRSA OU11, MicroScan, read-out: MIC
[12] = MRSA OU6, MicroScan, read-out: MIC
[13] = MRSA OU11, erythromycin + 600-Da BPEI
[14] = PA OU19, erythromycin + 600-Da BPEI
[15] = MRSA OU6, erythromycin + 600-Da BPEI

Row | Compound | susceptibility interpretation (PA OU19 [2]) | MIC (MRSA OU11 [3]; [11]) [µg/mL] | MIC (MRSA OU6 [4]; [12]) [µg/mL] | susceptibility interpretation (MRSA OU11 [3]; MRSA OU11, MicroScan) | susceptibility interpretation (MRSA OU6 [4]; MRSA OU6, MicroScan) | other results
1 | CC[C@H]1OC(=O)[C@H](C)[C@@H](O[C@H]2C[C@@](C)(OC)[C@@H](O)[C@H](C)O2)[C@H](C)[C@@H](O[C@@H]2O[C@H](C)C[C@H](N(C)C)[C@H]2O)[C@](C)(O)C[C@@H](C)CN(C)[C@H](C)[C@@H](O)[C@]1(C)O [azithromycin] |  |  |  |  |  | growth inhibition by the combination with 600-Da BPEI [1]: inhibits growth
2 | C[C@H]1[C@H](NC(=O)/C(=N\OC(C)(C)C(=O)O)c2csc(N)n2)C(=O)N1S(=O)(=O)O [aztreonam] | resistant |  |  |  |  | MIC (PA OU19 [2]; [10]): 16 µg/mL (≈ 36.7 µM)
3 | CO/N=C(\C(=O)N[C@@H]1C(=O)N2C(C(=O)[O-])=C(C[N+]3(C)CCCC3)CS[C@H]12)c1csc(N)n1 [cefepime] | resistant |  |  |  |  | MIC (PA OU19 [2]; [10]): 16 µg/mL (≈ 33.3 µM)
4 | CC(C)(O/N=C(\C(=O)N[C@@H]1C(=O)N2C(C(=O)[O-])=C(C[n+]3ccccc3)CS[C@H]12)c1csc(N)n1)C(=O)O [ceftazidime] | resistant |  |  |  |  | MIC (PA OU19 [2]; [10]): 16 µg/mL (≈ 29.3 µM)
5 | CCC[C@@H]1C[C@@H](C(=O)N[C@@H]([C@H]2O[C@H](SC)[C@H](O)[C@@H](O)[C@H]2O)[C@H](C)Cl)N(C)C1 [clindamycin] |  | > 4 | > 4 |  |  | 
6 | CCCCCCCCCC(=O)N[C@@H](Cc1c[nH]c2ccccc12)C(=O)N[C@H](CC(N)=O)C(=O)N[C@@H](CC(=O)O)C(=O)N[C@@H]1C(=O)NCC(=O)N[C@@H](CCCN)C(=O)N[C@@H](CC(=O)O)C(=O)N[C@H](C)C(=O)N[C@@H](CC(=O)O)C(=O)NCC(=O)N[C@H](CO)C(=O)N[C@@H]([C@H](C)CC(=O)O)C(=O)N[C@@H](CC(=O)c2ccccc2N)C(=O)O[C@@H]1C [daptomycin] |  | ≤ 0.5 | ≤ 0.5 | susceptible | susceptible | 
7 | CC[C@H]1OC(=O)[C@H](C)[C@@H](O[C@H]2C[C@@](C)(OC)[C@@H](O)[C@H](C)O2)[C@H](C)[C@@H](O[C@@H]2O[C@H](C)C[C@H](N(C)C)[C@H]2O)[C@](C)(O)C[C@@H](C)C(=O)[C@H](C)[C@@H](O)[C@]1(C)O [erythromycin] |  | > 4 | > 4 | resistant | resistant | MIC Antibiotic (MRSA OU11 [5]): over 2000 μg/mL; MIC Antibiotic (MRSA OU11 [5]; listed as Erythromycin): >2000 µg/mL; FICI (MRSA OU11 [5]; [13]): 0.31; Outcome (MRSA OU11 [5]; [13]): Synergy; FICI (PA OU19 [6]; [14]): 0.26; Outcome (PA OU19 [6]; [14]): Synergy; MIC Antibiotic with 16 μg/ml BPEI (PA OU19 [6]; PA OU19, with 16 μg/ml 600-Da BPEI): 2 µg/mL; MIC Antibiotic (MRSA OU6 [7]): over 2000 μg/mL; MIC Antibiotic (MRSA OU6 [7]; listed as Erythromycin): >2000 µg/mL; FICI (MRSA OU6 [7]; [15]): 0.26; Outcome (MRSA OU6 [7]; [15]): Synergy; MIC Antibiotic with 16 μg/ml BPEI (MRSA OU6 [7]; MRSA OU6, with 16 μg/ml 600-Da BPEI): 8 µg/mL
8 | C[C@@H](O)[C@H]1C(=O)N2C(C(=O)O)=C(SCCN=CN)C[C@H]12 [imipenem] |  |  |  |  |  | MIC of the carbapenem without potentiator (K. pneumoniae BAA-2146): > 2 µg/mL; MIC of the carbapenem without potentiator (E. coli BAA-2452): > 2 µg/mL
9 | CC(=O)NC[C@H]1CN(c2ccc(N3CCOCC3)c(F)c2)C(=O)O1 [linezolid] |  | 2 (≈ 5.93 µM) | 2 (≈ 5.93 µM) | susceptible | susceptible | 
10 | C[C@@H](O)[C@H]1C(=O)N2C(C(=O)O)=C(S[C@@H]3CN[C@H](C(=O)N(C)C)C3)[C@H](C)[C@H]12 [meropenem] | resistant |  |  |  |  | susceptibility of the strain to the carbapenem [8]: resistant; MIC (PA OU19 [2]; [10]): 8 µg/mL (≈ 20.9 µM); MIC of the carbapenem without potentiator (K. pneumoniae BAA-2146): > 8 µg/mL; MIC of the carbapenem without potentiator (E. coli BAA-2452): > 8 µg/mL
11 | Cc1onc(-c2ccccc2)c1C(=O)N[C@@H]1C(=O)N2[C@@H]1SC(C)(C)[C@@H]2C(=O)O [oxacillin] |  | > 2 | > 2 | resistant | resistant | 
12 | CN(C)[C@@H]1C(O)=C(C(N)=O)C(=O)[C@@]2(O)C(O)=C3C(=O)c4c(O)cccc4[C@@](C)(O)[C@H]3C[C@@H]12 [tetracycline] |  | ≤ 4 | ≤ 4 |  |  | 
13 | NC[C@H]1O[C@H](O[C@H]2[C@H](O)[C@@H](O[C@H]3O[C@H](CO)[C@@H](O)[C@H](N)[C@H]3O)[C@H](N)C[C@@H]2N)[C@H](N)C[C@@H]1O [tobramycin] | susceptible |  |  |  |  | MIC (PA OU19 [2]; [10]): 4 µg/mL (≈ 8.56 µM)
14 | CN[C@H](CC(C)C)C(=O)N[C@H]1C(=O)N[C@@H](CC(N)=O)C(=O)N[C@H]2C(=O)N[C@H]3C(=O)N[C@H](C(=O)N[C@H](C(=O)O)c4cc(O)cc(O)c4-c4cc3ccc4O)[C@H](O)c3ccc(c(Cl)c3)Oc3cc2cc(c3O[C@@H]2O[C@H](CO)[C@@H](O)[C@H](O)[C@H]2O[C@H]2C[C@](C)(N)[C@H](O)[C@H](C)O2)Oc2ccc(cc2Cl)[C@H]1O [vancomycin] |  |  |  | susceptible | susceptible | MIC (MRSA OU11 [3]; MRSA): 1 µg/mL (≈ 0.69 µM); MIC (MRSA OU6 [4]; MRSA): 2 µg/mL (≈ 1.38 µM)
15 | gentamicin | susceptible |  |  | susceptible | susceptible | MIC (PA OU19 [2]): 4 µg/mL
16 | lipopolysaccharide [LPS] |  |  |  |  |  | TNF-α concentration released by HEKa cells [9]: ~30 pg/mL; IL-6 concentration released by HEKa cells [9]: ~350 pg/mL
17 | peptidoglycan [PG] |  |  |  |  |  | TNF-α concentration released by HEKa cells [9]: ~30 pg/mL; IL-6 concentration released by HEKa cells [9]: ~350 pg/mL

From patent US20230172971A1, “ANTIBIOTIC AND ANTI-INFLAMMATORY COMPOSITIONS AND METHODS OF USE” (priority 2020, published 2023)
